Assay results taken from patent publication US4613602A, “Ranitidine derivative useful in the treatment of ulcer” (Magis Farmaceutici s.r.l., priority 1984, dated 1986).

Columns and labels:
[1] = test system: indomethacin-induced ulcers; assay: Anti-ulcer activity, indomethacin-induced ulcers in rat; assay type: in vivo; settings: 25 mg/kg p.o.; for Inhibition percentage (ulcer): relative to control; for mm of ulcer: control 18.4
Excerpt: This activity has been evaluated by using the method of indomethacin-induced ulcers in rat [Bhargava, K. P., Gupta M. B. and Tangri, K. K.: European J. of Pharmacology, 22, 191-195 (1973)].
The product has been administered as dissolved in carboxymethylcellulose at 0.2% and Tween 80 at 1% concentration.

[2] = Acute toxicity (LD50) in rat, Lichtfield and Wilcoxon; settings: in vivo, 14 days observation, read-out: DL50
Excerpt: (§1) The characteristics of high activity and of practical absence of side effects have been evaluated by studying the acute toxicity, the activity on indomethacin-induced ulcers, on gastric secretion, on histamine-inducedgastric hyperacidity, and on H2 --receptors of isolated uterus of guinea pig.
(§2) The acute toxicity has been studied on male and female mice of Swiss strain, and on albino male and female rats of Wistar strain, by administering the active principle by the oral way, by intravenous way, and by intramuscular way.
(§3) For each administering way envisaged, doses in geometrical progression have been tested.
(§4) At the end of the observation time period of 14 days, the LD50 and the related fiducial limits have been computated according to the method by Licthfield and Wilcoxon [Pharmacol. Exp. Theor., 118, 96-99 (1949)].

[3] = Acute toxicity (LD50) in mouse, Lichtfield and Wilcoxon; settings: in vivo, 14 days observation
Excerpt: as §1, §2, §3, §4

gastric secretion = assay: Therapeutical activity, overall statement; settings: in vivo
H2-receptors = target: T1, H2-receptors (Rattus norvegicus, UniProt P25102); assay: Antagonism to histamine in isolated uterus of female rat under estrus; settings: for Relaxation with histamine 10^-2 g/l, after the administration / Relaxation with histamine 10^-2 g/l, Δ: basal value 11.5
T1 construct: functional antagonism of histamine-induced relaxation
T1 sequence (P25102 whole entry): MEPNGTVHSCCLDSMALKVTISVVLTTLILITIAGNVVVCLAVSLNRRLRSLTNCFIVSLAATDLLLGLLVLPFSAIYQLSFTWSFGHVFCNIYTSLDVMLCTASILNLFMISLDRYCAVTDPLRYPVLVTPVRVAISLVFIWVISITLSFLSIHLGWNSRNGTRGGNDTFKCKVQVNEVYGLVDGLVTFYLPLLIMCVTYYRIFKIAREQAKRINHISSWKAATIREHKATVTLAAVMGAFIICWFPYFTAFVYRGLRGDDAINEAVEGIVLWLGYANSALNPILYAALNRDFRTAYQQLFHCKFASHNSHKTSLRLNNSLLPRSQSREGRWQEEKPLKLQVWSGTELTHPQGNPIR

mice and rats = assay: Acute toxicity, overall comparison (mouse and rat); assay type: in vivo; settings: whole of the data of Table 1
Excerpt: as §1, §2, §3, §4

[4] = test system: gastric secretion induced by histamine; assay: Anti-H2 activity, gastric secretion in rats in vivo induced by histamine; parameters: species or system rat; settings: 50 mg/kg i.p.; for pH variation from the beginning of the treatment / Area: mean ± ES; for Area: control 184.93, *p ≤ 0.01, **p ≤ 0.01
Description: Anti-H2 activity. Gastric secretion in rats in vivo induced by histamine. The anti-secretory activity has been studied by the method by Gosh, M. N., Schild, M. O. [Brit. J. Pharmacol., 13, 54 (1958)]. | Antihistaminic anti-H2 activity, gastric secretion in rats, in vivo, | induced by histamine. | Histamine perfused into vein 200 μg/kg/min at the flow rate of 0.1 | ml/min. | Perfusion of stomach with 0.00025 N NaOH at the flow rate of 1 | ml/min.

[5] = im, intramuscular administering
[6] = im, intramuscular administering, read-out: DL50
[7] = intravenous administering, read-out: DL50
[8] = oral administering, read-out: DL50 (95 fiducial limits)

| SMILES | Inhibition percentage (ulcer) [1] [percentage] | mm of ulcer [1] [mm] | LD50 at 336 h [2, 5] [mg/kg] | LD50 at 336 h ([2]; intravenous administering) [mg/kg] | LD50 at 336 h ([2]; oral administering) [mg/kg] | LD50 at 336 h [3, 6] [mg/kg] | LD50 at 336 h [3, 7] [mg/kg] | LD50 at 336 h [3, 8] [mg/kg] | pH variation from the beginning of the treatment ([4]; 0 min) [pH] | % Δ (percent increase of area relatively to the control) [4] [%] | Area [4] [mm^2] | pH variation from the beginning of the treatment ([4]; 5 min) [pH] | pH variation from the beginning of the treatment ([4]; 10 min) [pH] | pH variation from the beginning of the treatment ([4]; 15 min) [pH] | pH variation from the beginning of the treatment ([4]; 20 min) [pH] | pH variation from the beginning of the treatment ([4]; 25 min) [pH] | pH variation from the beginning of the treatment ([4]; 30 min) [pH] | pH variation from the beginning of the treatment ([4]; 35 min) [pH] | pH variation from the beginning of the treatment ([4]; 40 min) [pH] | pH variation from the beginning of the treatment ([4]; 45 min) [pH] | other results |
| --- | --- | --- | --- | --- | --- | --- | --- | --- | --- | --- | --- | --- | --- | --- | --- | --- | --- | --- | --- | --- | --- |
| CN(C)Cc1ccc(CSCCNC(=C[N+](=O)[O-])N2CCN(C)CC2)o1 [Methylpiperazino-ranitidine, 1-N-[2-[[5-[(dimethylamino)-methyl]-furfuryl]-thio]-ethyl]-amino-1-[4-methylpiperazino]-2-nitroethene] | 85.9 | 2.6 | 2000 | 110 | 5500 | 300 | 120 | 2610 | 8.68 | 32.84 | 245.67 | 7.21 | 5.85 | 4.62 | 4.43 | 4.39 | 4.27 | 4.06 | 4.05 | 3.97 | anti-ulcer activity compared with ranitidine [1]: same anti-ulcer activity as ranitidine; therapeutical activity compared with ranitidine (gastric secretion): practically overlapping to that of ranitidine; Relaxation with histamine 10^-2 g/l, after the administration (H2-receptors; 6.75 × 10^-3 g/l, N° 5): 2.5; Relaxation with histamine 10^-2 g/l, Δ (H2-receptors; 6.75 × 10^-3 g/l, N° 5): 9; inhibition at 6.75 µg/mL (H2-receptors; rat, 6.75 × 10^-3 g/l, N° 5, read-out: Inhibition percentage (relaxation with histamine 10^-2 g/l)): 78.2%; toxicity compared with ranitidine (mice and rats): constantly results less toxic than ranitidine; action prolonged in time, pH value from the 35th to the 60th minute [4]: from the 35th to the 60th minute the pH value remains nearly constant; pH variation from the beginning of the treatment ([4]; 50 min): 3.92 pH; pH variation from the beginning of the treatment ([4]; 55 min): 3.99 pH; pH variation from the beginning of the treatment ([4]; 60 min): 3.95 pH |
| CNC(=C[N+](=O)[O-])NCCSCc1ccc(CN(C)C)o1 [Ranitidine, ranitidine] | 84.2 | 2.9 | 2020 | 93 | > 5000 | 280 | 80 | 1700 | 8.80 | 45.47 | 269.02 | 6.12 | 4.06 | 4.06 | 4.28 | 4.48 | 4.67 | 4.89 | 5.16 | 5.33 | Relaxation with histamine 10^-2 g/l, after the administration (H2-receptors; 5 × 10^-3 g/l, N° 5): 3; Relaxation with histamine 10^-2 g/l, Δ (H2-receptors; 5 × 10^-3 g/l, N° 5): 8.5; inhibition at 5 µg/mL (H2-receptors; rat, read-out: Inhibition percentage (relaxation with histamine 10^-2 g/l)): 73.9%; pH variation from the beginning of the treatment ([4]; 50 min): 5.40 pH; pH variation from the beginning of the treatment ([4]; 55 min): 5.57 pH; pH variation from the beginning of the treatment ([4]; 60 min): 5.69 pH |
